The values that follow come from patent US11530198B2, “Compositions and methods for treating infections” (priority 2016, dated 2022).

Assay [1] addresses P. falciparum DHFR (pfDHFR) (Plasmodium falciparum (isolate K1 / Thailand), UniProt P13922). The experiment in a line: DHFR inhibition assay (diaphorase/resazurin coupled), P. falciparum DHFR. It counts as biochemical. The following applies: for pfDHFR pIC50-DHFR primary assay: Table 15, P. falciparum DHFR.
For another assay, the target named is T. gondii DHFR (tgDHFR) (Toxoplasma gondii, UniProt Q07422). The following applies: for Average DHFR selectivity (h/tg): hDHFR IC50/tgDHFR IC50.
The target of the next assay is L. major DHFR (1mDHFR) (Leishmania major, UniProt P07382). The class given is biochemical. To be noted: for Average DHFR selectivity (h/lm)*-DHFR IC50: hDHFR IC50/L. major DHFR IC50.
For a further assay, the target named is T. brucei DHFR (tbDHFR) (Trypanosoma brucei brucei, UniProt Q27783). The assay is described as follows: DHFR inhibition assay (diaphorase/resazurin coupled), T. brucei DHFR. It counts as biochemical. The following applies: Table 13; T. brucei DHFR. A general note: Resazurin is reduced to fluorescent resorufin, in cell work by metabolically active cells.
The target of another assay is hDHFR (Homo sapiens (Human), UniProt P00374). The assay is described as follows: DHFR inhibition assay (diaphorase/resazurin coupled, fluorescence of resorufin), human DHFR. It counts as biochemical.
In the next assay the target is T. cruzi DHFR (tcDHFR) (Trypanosoma cruzi, UniProt Q27793). The assay is described as follows: DHFR inhibition assay (diaphorase/resazurin coupled), T. cruzi DHFR. The class given is biochemical. The following applies: for tcDHFR pIC50-DHFR primary assay: Table 12, T. cruzi DHFR; for Average DHFR selectivity (h/tc): hDHFR IC50/tcDHFR IC50.

Read-outs that look alike come from different tables or passages of the source.

Chain of hDHFR (P00374 whole entry): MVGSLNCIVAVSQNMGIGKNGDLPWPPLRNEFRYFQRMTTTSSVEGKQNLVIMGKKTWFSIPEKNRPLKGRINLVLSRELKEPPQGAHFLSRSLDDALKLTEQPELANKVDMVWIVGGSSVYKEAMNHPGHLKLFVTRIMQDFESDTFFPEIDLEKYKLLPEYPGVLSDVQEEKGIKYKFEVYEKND

Regarding `CCCc1nc(N)nc(N)c1N1CCN(c2ccccc2)CC1` [Compound 49, 5-(4-phenylpiperazin-1-yl)-6-propylpyrimidine-2,4-diamine], in assay [1], the “pfDHFR pIC50-DHFR primary assay” value was 7.85. Also, the “Average DHFR selectivity (h/pf)*-DHFR IC50” value in assay [1] (hDHFR IC50/pfDHFR IC50) was 806. The “Average DHFR selectivity (h/tg)” value on T. gondii DHFR (tgDHFR) was 501.19.
Take `Nc1ncc(N2CCN(c3cccc(-c4cccnn4)c3)CC2)c(N)n1` [Compound 107]: the “Average DHFR selectivity (h/lm)*-DHFR IC50” value on L. major DHFR (1mDHFR) worked out at 30.
With `Nc1ncc(N2CCN(c3ccccc3)CC2)c(N)n1` [Compound 4, 5-(4-phenylpiperazin-1-yl)pyrimidine-2,4-diamine], the “tbDHFR pIC50-DHFR primary assay” value at T. brucei DHFR (tbDHFR) came to 7.50. Also, the “pfDHFR pIC50-DHFR primary assay” value in assay [1] is recorded as 8.72. At L. major DHFR (1mDHFR) (Table 14, L. major DHFR), the “mDHFR pIC50-DHFR primary assay” value is on record as 6.30. Moreover, the “hDHFR pIC50-DHFR primary assay” value on hDHFR (Table 11), at hDHFR (Table 12), at hDHFR (Table 13), on hDHFR (Table 14) and on hDHFR (Table 15) was 4.90 in each case. Further, the “tcDHFR pIC50-DHFR primary assay” value on T. cruzi DHFR (tcDHFR) worked out at 7.04. On T. gondii DHFR (tgDHFR), the “tgDHFR pIC50-DHFR primary assay” value stood at 6.68.
With `COc1ncc(-c2cccc(N3CCN(c4cnc(N)nc4N)CC3)c2)cn1` [Compound 78, 5-(4-(3-(2-methoxypyrimidin-5-yl)phenyl)piperazin-1-yl)pyrimidine-2,4-diamine], at T. brucei DHFR (tbDHFR), the “tbDHFR pIC50-DHFR primary assay” value is given as 8.68. The “pfDHFR pIC50-DHFR primary assay” value in assay [1] was found to be 9.15. The “hDHFR pIC50-DHFR primary assay” value is listed as 5.92 at hDHFR (Table 11), 6.05 at hDHFR (Table 13) and 6.04 at hDHFR (Table 15). For the same molecule, the “tgDHFR pIC50-DHFR primary assay” value at T. gondii DHFR (tgDHFR) (Table 11, T. gondii DHFR) was determined as 8.49.
For the molecule `Nc1ncc(N2CCN(c3cnc4ccccc4c3)CC2)c(N)n1` [Compound 19, 5-(4-(quinolin-3-yl)piperazin-1-yl)pyrimidine-2,4-diamine], on L. major DHFR (1mDHFR), the “Average DHFR selectivity (h/lm)*-DHFR IC50” value is 35.
For the molecule `Nc1ncc(N2CCN(c3cccc(-c4ccncn4)c3)CC2)c(N)n1` [Compound 102, 5-(4-(3-(pyrimidin-4-yl)phenyl)piperazin-1-yl)pyrimidine-2,4-diamine], the “Average DHFR selectivity (h/tc)” value on T. cruzi DHFR (tcDHFR) was determined as 103.
On the same count and under the same terms, next, `COc1ccc(N2CCN(c3cnc(N)nc3N)CC2)cc1` [Compound 114, 5-(4-(4-methoxyphenyl)piperazin-1-yl)pyrimidine-2,4-diamine]: 144.
Turning to `Nc1ncc(N2CCN(c3cccc(-c4cnc(N5CCC5)nc4)c3)CC2)c(N)n1` [Compound 98, 5-(4-(3-(2-(azetidin-1-yl)pyrimidin-5-yl)phenyl)piperazin-1-yl)pyrimidine-2,4-diamine], the “Average DHFR selectivity (h/lm)*-DHFR IC50” value at L. major DHFR (1mDHFR) stood at 48. Further, the “Average DHFR selectivity (h/tg)” value on T. gondii DHFR (tgDHFR) is on record as 130.84.
On to `CN(Cc1cnc2nc(N)nc(N)c2n1)c1ccc(C(=O)N[C@@H](CCC(=O)O)C(=O)O)cc1` [Methotrexate], for which the “tcDHFR pIC50-DHFR primary assay” value on T. cruzi DHFR (tcDHFR) stood at 8.96.
For `Nc1ncc(N2CCN(c3ccc(-c4ccccc4)cc3)CC2)c(N)n1` [Compound 12, 5-(4-([1,1′-biphenyl]-4-yl)piperazin-1-yl)pyrimidine-2,4-diamine], the “Average DHFR selectivity (h/lm)*-DHFR IC50” value at L. major DHFR (1mDHFR) turned out to be 29.
On to `Nc1ncc(N2CCN(c3cccc(-c4ccnc(F)c4)c3)CC2)c(N)n1` [Compound 90, 5-(4-(3-(2-fluoropyridin-4-yl)phenyl)piperazin-1-yl)pyrimidine-2,4-diamine], for which, at L. major DHFR (1mDHFR), the “Average DHFR selectivity (h/lm)*-DHFR IC50” value is 27.
`Nc1ncc(N2CCN(c3ccc(C(F)(F)F)cc3)CC2)c(N)n1` [Compound 115, 5-(4-(4-(trifluoromethyl)phenyl)piperazin-1-yl)pyrimidine-2,4-diamine]: on T. cruzi DHFR (tcDHFR), the “Average DHFR selectivity (h/tc)” value is 132.
